# Test results: the NIST ThermoML archive (doi:10.1016/j.tca.2017.12.006)
# Numbers after ± are expanded uncertainties.
# Details: Liquid, Transpiration method
smiles,measurement,setting,value
CCCCOC(=O)CCC(C)=O [butyl levulinate],vapor or sublimation pressure,298.2 K,0.00393 ± 0.00026 kPa
same,vapor or sublimation pressure,303.2 K,0.00611 ± 0.00043 kPa
same,vapor or sublimation pressure,308.1 K,0.00895 ± 0.00061 kPa
same,vapor or sublimation pressure,313 K,0.01421 ± 0.00094 kPa
same,vapor or sublimation pressure,318 K,0.01999 ± 0.0013 kPa
same,vapor or sublimation pressure,323 K,0.03006 ± 0.0019 kPa
same,vapor or sublimation pressure,327.9 K,0.0443 ± 0.0028 kPa
same,vapor or sublimation pressure,332.8 K,0.0632 ± 0.004 kPa
same,vapor or sublimation pressure,337.8 K,0.0939 ± 0.006 kPa
same,vapor or sublimation pressure,342.8 K,0.1289 ± 0.008 kPa
same,vapor or sublimation pressure,347.8 K,0.181 ± 0.011 kPa
CCOC(=O)CCC(C)=O [ethyl levulinate],vapor or sublimation pressure,293.5 K,0.0169 ± 0.0011 kPa
same,vapor or sublimation pressure,298.4 K,0.0253 ± 0.0016 kPa
same,vapor or sublimation pressure,303.3 K,0.0375 ± 0.0023 kPa
same,vapor or sublimation pressure,308.3 K,0.0542 ± 0.0035 kPa
same,vapor or sublimation pressure,313.3 K,0.0795 ± 0.005 kPa
same,vapor or sublimation pressure,318.3 K,0.1129 ± 0.0071 kPa
same,vapor or sublimation pressure,323.3 K,0.1613 ± 0.01 kPa
same,vapor or sublimation pressure,328.2 K,0.2312 ± 0.015 kPa
same,vapor or sublimation pressure,333.1 K,0.3106 ± 0.019 kPa
same,vapor or sublimation pressure,338.1 K,0.415 ± 0.025 kPa
same,vapor or sublimation pressure,343.1 K,0.553 ± 0.035 kPa
same,vapor or sublimation pressure,348.8 K,0.758 ± 0.047 kPa
COC(=O)CCC(C)=O [methyl levulinate],vapor or sublimation pressure,293.5 K,0.0302 ± 0.002 kPa
same,vapor or sublimation pressure,298.5 K,0.0442 ± 0.0028 kPa
same,vapor or sublimation pressure,303.3 K,0.0638 ± 0.004 kPa
same,vapor or sublimation pressure,308.5 K,0.0929 ± 0.0058 kPa
same,vapor or sublimation pressure,313.4 K,0.1359 ± 0.0085 kPa
same,vapor or sublimation pressure,318.3 K,0.1837 ± 0.012 kPa
same,vapor or sublimation pressure,323.2 K,0.2626 ± 0.017 kPa
same,vapor or sublimation pressure,328.2 K,0.3572 ± 0.022 kPa
same,vapor or sublimation pressure,333.2 K,0.501 ± 0.03 kPa
same,vapor or sublimation pressure,338.2 K,0.659 ± 0.04 kPa
same,vapor or sublimation pressure,343.1 K,0.878 ± 0.055 kPa
same,vapor or sublimation pressure,348.2 K,1.142 ± 0.072 kPa
same,vapor or sublimation pressure,353.2 K,1.473 ± 0.091 kPa
